Assay results reported in patent US9260484B2, “Small molecule composite surfaces as inhibitors of protein-protein interactions” (Ohio State Innovation Foundation, priority 2011, dated 2016).
Entries after “also recorded” stand apart in the source; their conditions may differ. Like-named read-outs stand apart in the source and are kept apart here. Values belong to the compound of their own block, whether it stands above or below them. Numbered stars: 1 amine (or outer) side, 2 acyl side, 3 side chain; on linkers, the order of the positions; unused ones are H or OH. Bridge positions count the residues as written; N and C are the ends. Square brackets hold non-standard residues; d marks the D form. Peptide text beside a SMILES is read from it. dβ3h(hPhe) = O=C(C[C@@H](CCc1ccccc1)N[*:1])[*:2]; Phe(4-F) = N[C@@H](Cc1ccc(F)cc1)C(=O)O; d2Nal = N[C@H](Cc1ccc2ccccc2c1)C(=O)O; X1 = CC(C)(CO[*:2])C(=O)C(=O)[*:1]; dNle = CCCC[C@@H](N)C(=O)O; Pip = O=C(O)[C@@H]1CCCCN1

What was measured:
FKBP (no GST) = FKBP (no GST) (Homo sapiens, UniProt P62942); assay: fluorescence polarization binding of FITC-labeled compound to FKBP
FKBP = biological target: T1, FKBP (Homo sapiens, UniProt P62942); assay: fluorescence polarization (FA) competition assay for binding to FKBP
T1 construct: 200 nM recombinant FKBP
Experimental: To facilitate solid-phase synthesis, an invariant glutamine was added to the C-terminal side of the R^1 residue, for the purpose of backbone peptide cyclization and providing an anchor for attachment to the solid support. For this set of compounds, the dipeptide Ala-Ala was used as the effector domain. The rapalogs were tested for binding to FKBP by a fluorescence polarization competition assay^22,23. SLF^24, was labeled with the fluorescent dye fluorescein^23. Binding of the labeled ligand to FKBP increases its fluorescence anisotropy (FA) values. Addition of an unlabeled ligand to the reaction inhibits the binding of SLF to FKBP and therefore decreases the FA values. […] Subsequently, the IC50 values were converted into KI values based on the Cheng-Prusoff equation.
A previously reported synthetic ligand of FKBP^46 (SLF in FIG. 2), was labeled with the fluorescent dye fluorescein^20. Binding of the labeled ligand to FKBP increases its fluorescence anisotropy (FA) value.
The fluorescence polarization based competition assay was performed in a 384-well plate. […] After the addition of the rapalogs as the last component, the binding reactions were incubated for 1 h at room temperature to reach binding equilibrium. Anisotropy values were measured on a FlexStation 3 plate reader (Molecular Devices, Sunnyvale, Calif.).

[1] = system: H358 lung cancer cell line; assay: MTT viability assay; format: cell-based, human
Experimental: (§1) FIG. 14. MTT viability assay with H358 and A549 lung cancer cell lines (both have mutant K-Ras). The assay was performed to assess the effect of compound B12 on proliferation and survival of these cell lines.
(§2) Finally, preliminary cellular assays were performed with compound […]. Singh et al. used RNA interference to down regulate mutant K-RAS in a large number of human cancer cell lines.^102 They reported that the H358 cell line is very sensitive to losing mutant K-Ras whereas the A549 cell line is hardly affected. Both are lung cancer cell lines.

[2] = system: A549 lung cancer cell line; assay: MTT viability assay; format: cell-based, human
Experimental: as §1, §2

K-Ras and Tiam = K-Ras and Tiam (Homo sapiens, UniProt P01116, G12V); assay: bead assay: K-Ras binding to immobilized Myc-tagged effector protein; details: 10 μM compound; Texas red-labeled GST-K-Ras 100 nM
Experimental: (§3) Compound B12 was also assayed for its ability to inhibit the PPI between K-Ras and its effector proteins including PI3 kinase, Tiam, and RalGDS. The Myc-tagged effector proteins were immobilized on protein A-beads with an anti-Myc antibody.

K-Ras and PI3 kinase = K-Ras and PI3 kinase (Homo sapiens, UniProt P01116, G12V); assay: as above; details: 10 μM compound; Texas red-labeled GST-K-Ras 100 nM
Experimental: as §3

K-Ras and RalGDS = K-Ras and RalGDS (Homo sapiens, UniProt P01116, G12V); assay: as above; details: 10 μM compound; Texas red-labeled GST-K-Ras 100 nM
Excerpt: The Myc-tagged effector proteins were immobilized on protein A-beads with an anti-Myc antibody.

[3] = Table 2, converted from IC50 by Cheng-Prusoff equation, read-out: Ki

T1 sequence (P62942 whole entry): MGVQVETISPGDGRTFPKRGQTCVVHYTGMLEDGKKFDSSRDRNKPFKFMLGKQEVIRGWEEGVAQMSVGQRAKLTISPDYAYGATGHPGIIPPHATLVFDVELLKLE
Sequence of K-Ras and RalGDS (P01116 1-188 isoform P01116-2 G12V): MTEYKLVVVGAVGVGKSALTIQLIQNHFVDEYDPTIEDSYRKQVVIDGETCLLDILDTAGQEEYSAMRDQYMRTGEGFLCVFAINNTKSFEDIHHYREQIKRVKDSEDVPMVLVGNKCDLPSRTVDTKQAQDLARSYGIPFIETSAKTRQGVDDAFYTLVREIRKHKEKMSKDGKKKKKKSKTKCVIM
Sequence of K-Ras and PI3 kinase (P01116 1-188 isoform P01116-2 G12V): as above
Sequence of K-Ras and Tiam (P01116 1-188 isoform P01116-2 G12V): as above
Sequence of FKBP (no GST) (P62942 whole entry): as the sequence (P62942 whole entry) above

Structure (SMILES): CCCC[C@H]1NC(=O)[C@H](Cc2ccc(F)cc2)NC(=O)[C@H](CCCN=C(N)N)NC(=O)[C@@H](Cc2ccc3ccccc3c2)NC(=O)[C@H](CCCN=C(N)N)NC(=O)[C@H](CCCN=C(N)N)NC(=O)[C@H](CCC(N)=O)NC(=O)C[C@@H](CCc2ccccc2)NC(=O)[C@@H]2CCCCN2C(=O)C(=O)C(C)(C)COC1=O [Compound C12] ([Pip][dβ3h(hPhe)]QRR[d2Nal]R[Phe(4-F)][dNle]; linker N-C via X1)
- Kd (FKBP (no GST)): 500 nM

- Ki (FKBP; [3]): 300 ± 100 nM
Structure (SMILES): C[C@@H]1NC(=O)[C@H](C)NC(=O)[C@H](CCC(N)=O)NC(=O)C[C@@H](CCc2ccccc2)NC(=O)[C@@H]2CCCCN2C(=O)C(=O)C(C)(C)COC(=O)[C@H]([C@@H](C)O)NC(=O)[C@H](C)NC1=O [Compound 2r] ([Pip][dβ3h(hPhe)]QAAAT; linker N-C via X1)

- Ki (FKBP; [3]): 7000 ± 1000 nM
Structure (SMILES): C[C@@H]1NC(=O)[C@H](C)NC(=O)[C@H](CCC(N)=O)NC(=O)[C@H](C)NC(=O)[C@@H]2CCCCN2C(=O)C(=O)C(C)(C)COC(=O)[C@@H](C)NC1=O [Compound 2a] (HELM PEPTIDE1{[O=C([C@@H]1CCCCN1[*:1])[*:2]].A.Q.A.A.[dA]}|CHEM1{[CC(C)(CO[*:2])C(=O)C(=O)[*:1]]}$PEPTIDE1,CHEM1,1:R1-1:R1|PEPTIDE1,CHEM1,6:R2-1:R2$$$V2.0)

- Ki (FKBP; [3]): 180 ± 60 nM
Structure (SMILES): C[C@@H]1NC(=O)[C@H](C)NC(=O)[C@H](CCC(N)=O)NC(=O)C[C@@H](CCc2ccccc2)NC(=O)[C@@H]2CCCCN2C(=O)C(=O)C(C)(C)COC(=O)[C@@H](C)NC(=O)[C@H](C)NC1=O [Compound 2p] ([Pip][dβ3h(hPhe)]QAAA[dA]; linker N-C via X1)

Structure (SMILES): C[C@@H]1NC(=O)[C@H](CCC(N)=O)NC(=O)C[C@@H](CCc2ccccc2)NC(=O)[C@@H]2CCCCN2C(=O)C(=O)C(C)(C)COC(=O)[C@H](Cc2ccccc2)NC(=O)[C@H](C)NC(=O)[C@@H](C)NC1=O [Compound 2s] ([Pip][dβ3h(hPhe)]QA[dA]AF; linker N-C via X1)
- Ki (FKBP): 900 ± 200 nM

Structure (SMILES): CCCC[C@H]1NC(=O)[C@H](Cc2ccc(F)cc2)NC(=O)[C@H](CCCNC(=N)N)NC(=O)[C@@H](Cc2ccc3ccccc3c2)NC(=O)[C@H](CCCNC(=N)N)NC(=O)[C@H](CCCNC(=N)N)NC(=O)[C@H](CCC(N)=O)NC(=O)C[C@@H](CCc2ccccc2)NC(=O)[C@@H]2CCCCN2C(=O)C(=O)C(C)(C)COC1=O [Compound C12] ([Pip][dβ3h(hPhe)]QRR[d2Nal]R[Phe(4-F)][dNle]; linker N-C via X1)
- sensitivity of cells to compound ([1]; FIG. 14): sensitive
- IC50 ([1]; H358 cells, proliferation and survival, preliminary): ~10000 nM
- IC50 ([2]; A549 cells, proliferation and survival, preliminary): ~50000 nM
- sensitivity of cells to compound ([2]; FIG. 14): significantly less sensitive
- binding of GST-KRas to immobilized Tiam (K-Ras and Tiam): completely blocked
- binding of GST-KRas to immobilized PI3 kinase (K-Ras and PI3 kinase): completely blocked
- binding of GST-KRas to immobilized RalGDS (K-Ras and RalGDS): completely blocked; also recorded: Disruption

Structure (SMILES): C[C@@H]1NC(=O)[C@H](C)NC(=O)[C@H](CCC(N)=O)NC(=O)C[C@H](CCc2ccccc2)NC(=O)[C@@H]2CCCCN2C(=O)C(=O)C(C)(C)COC(=O)[C@H](Cc2ccccc2)NC1=O [Compound 2j]
- Ki (FKBP): 800 ± 100 nM
